Converted amounts (≈) assume the structure as drawn. Like-named read-outs stand apart in the source and are kept apart here.
What was measured:
RVFV strain MP-12 [1] = assay: microbe, parasite or virus in culture; format: cell-based, Rift Valley fever virus; details: read-out: A549 EC50
ZIKV = assay: microbe, parasite or virus in culture; format: cell-based, Zika virus; details: read-out: ZIKV EC50
LACV = assay: microbe, parasite or virus in culture; format: cell-based, La Crosse virus; details: read-out: LACV EC50
RVFV strain MP-12 [2] = assay: microbe, parasite or virus in culture; format: cell-based, Rift Valley fever virus
C. neoformans = assay: microbe, parasite or virus in culture; format: cell-based; details: for MIC80: Cryptococcus neoformans, read-out: C. neoformans (MIC80, μM)
Human RNase H1 = molecular target: T1, Human RNase H1 (Homo sapiens, UniProt O60930); assay: biochemical
T1 construct: made in house; host or cells: E. coli
T1 sequence (O60930 1-286): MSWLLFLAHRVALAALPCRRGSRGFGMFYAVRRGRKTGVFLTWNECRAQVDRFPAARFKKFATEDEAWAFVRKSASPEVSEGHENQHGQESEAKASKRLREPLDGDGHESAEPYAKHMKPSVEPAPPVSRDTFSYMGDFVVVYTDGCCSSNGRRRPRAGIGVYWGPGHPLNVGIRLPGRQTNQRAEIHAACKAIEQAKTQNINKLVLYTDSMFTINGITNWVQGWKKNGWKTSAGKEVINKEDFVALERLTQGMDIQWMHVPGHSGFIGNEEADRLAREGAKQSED

RVFV MP-12 = assay: microbe, parasite or virus in culture; format: cell-based, Rift Valley fever virus; details: read-out: Estimated EC50
Staphylo-coccus spp. = assay: organism not typed; format: cell-based
in vitro = details: African green monkey
[3] = read-out: Human RNase H1 (IC50)
[4] = Rift Valley fever virus, A549, 24 h
[5] = La Crosse virus, Vero C1008, 24 h
[6] = Rift Valley fever virus, Vero, 24 h
[7] = Rift Valley fever virus, Vero, read-out: Vero EC50

## O=C1C=CC(=O)c2ccccc21 [Compound 327]
RVFV strain MP-12 [1]
  EC50: 19.6 µM
ZIKV
  EC50: > 120 µM
LACV
  EC50: 12.7 µM
HepDES19
  CC50: 18.5 µM
RVFV strain MP-12 [2]; read-out: EC50
  EC50: 39.7 µM
RVFV strain MP-12 [2]; read-out: Vero EC50
  EC50: 39.7 µM
C. neoformans
  C. neoformans (MIC80, μM): 9.1 µM
Human RNase H1; [3]
  IC50: 47 µM
RVFV MP-12
  EC50: 2 µM
A549 cells
  CC50: 27.5 µM

## O=c1c(O)c(-c2ccc(O)c(O)c2)oc2cc(O)c(O)c(O)c12 [Compound 7, Quercetagetin]
RVFV MP-12; Rift Valley fever virus, Vero
  EC50: > 120 µM

## Cc1cc(O)c(=O)c(O)cc1C(=O)NCc1ccc(-c2ccccc2)cc1 [Compound 539]
Staphylo-coccus spp.
  Staphylo-coccus spp. (MIC80, μM): 38 µM
HepDES19
  CC50: 3.6 µM
RVFV strain MP-12 [2]; read-out: EC50
  EC50: 18.6 µM
C. neoformans
  C. neoformans (MIC80, μM): 4.5 µM
Human RNase H1; [3]
  IC50: 105 µM
RVFV MP-12
  EC50: 10 µM

## O=C1c2ccccc2C(=O)N1O [Compound 138]
RVFV MP-12
  EC50: > 120 µM

## CCCCNC(=O)c1cc(O)c(=O)c(O)cc1C [Compound 1039]
RVFV strain MP-12 [1]; [4]
  EC50: 15.5 µM
ZIKV; Zika virus, Vero C1008, 48 h
  EC50: > 120 µM
LACV; [5]
  EC50: > 120 µM
RVFV strain MP-12 [2]; [6]
  EC50: 8.9 µM
RVFV strain MP-12 [2]; [7]
  EC50: 8.9 µM
C. neoformans
  MIC80: 12 µM (≈ 3.02 µg/mL)
Human RNase H1
  IC50: 209 µM
RVFV MP-12; Rift Valley fever virus, Vero
  EC50: 6 µM
Vero cells; African green monkey
  CC50: > 120 µM
In vitro; Vero CC50
  CC50: > 120 µM

## Cc1cc(O)c(=O)c(O)cc1C(=O)N1CCSC1 [Compound 712]
RVFV MP-12
  EC50: > 20 µM
Vero cells
  CC50: 20 µM

## C/C(=N\c1ccc(Cl)c(Cl)c1)c1c(C)cc(O)n(O)c1=O [Compound 670]
RVFV strain MP-12 [1]; [4]
  EC50: 15.3 µM
ZIKV; Zika virus, Vero C1008, 48 h
  EC50: > 120 µM
LACV; [5]
  EC50: > 120 µM
RVFV strain MP-12 [2]; [6]
  EC50: 14 µM
RVFV strain MP-12 [2]; [7]
  EC50: 14 µM
C. neoformans
  MIC80: 69 µM (≈ 22.6 µg/mL)
Human RNase H1
  IC50: 356 µM
RVFV MP-12; Rift Valley fever virus, Vero
  EC50: 10 µM
Vero cells; African green monkey
  CC50: > 120 µM
In vitro; CC50
  CC50: > 120 µM

## COc1ccc(Cl)cc1C(=O)Sc1cccccc1=O [Compound 681]
RVFV MP-12
  EC50: > 2 µM
Vero cells
  CC50: 2 µM

## COC(=O)c1c(C)cc(O)c(=O)c(O)c1Br [Compound 335]
RVFV strain MP-12 [1]
  EC50: > 120 µM
ZIKV
  EC50: > 120 µM
LACV
  EC50: > 120 µM
RVFV strain MP-12 [2]; read-out: EC50
  EC50: 40.8 µM
RVFV strain MP-12 [2]; read-out: RVFV (EC50)
  EC50: 40.8 µM
RVFV strain MP-12 [2]; read-out: Vero EC50
  EC50: 40.8 µM
C. neoformans
  C. neoformans (MIC80, μM): 50 µM
Human RNase H1; [3]
  IC50: 111 µM
RVFV MP-12
  EC50: 3 µM
Vero cells
  CC50: > 120 µM
A549 cells
  CC50: 96.2 µM

## COC(=O)c1c(C)cc(O)c(=O)c(O)c1O [Compound 196]
Staphylo-coccus spp.
  Staphylo-coccus spp. (MIC80, μM): 67 µM
HepDES19
  CC50: 6 µM
RVFV strain MP-12 [2]; read-out: RVFV (EC50)
  EC50: 23.9 µM
Human RNase H1; [3]
  IC50: 408 µM
Vero cells
  CC50: > 120 µM

## Cc1ccc(O)c(=O)c(O)c1 [Compound 210]
RVFV strain MP-12 [2]; read-out: EC50
  EC50: 11.8 µM
C. neoformans
  C. neoformans (MIC80, μM): 15 µM
Human RNase H1; [3]
  IC50: 85 µM
RVFV MP-12
  EC50: 8 µM
Vero cells
  CC50: > 120 µM

## CCOC(=O)c1sc(NC(=O)CSc2nnc(Cc3ccccc3)o2)c(C#N)c1C [Compound 6]
RVFV MP-12
  EC50: > 120 µM

## Cc1cc(O)c(=O)c(O)cc1C(=O)NCCc1ccccc1 [Compound 710]
RVFV MP-12
  EC50: 17 µM
Vero cells
  CC50: > 120 µM

## Cc1ccc(Sc2cccc(O)c(=O)c2O)cc1 [Compound 838]
HepDES19
  CC50: 18.6 µM
RVFV strain MP-12 [2]; read-out: EC50
  EC50: 12.7 µM
C. neoformans
  C. neoformans (MIC80, μM): 1.0 µM
Human RNase H1; [3]
  IC50: 100 µM
RVFV MP-12
  EC50: 8 µM

## Cc1cc(O)c(=O)c(O)cc1C(=O)Nc1ccc(F)cc1F [Compound 711]
RVFV MP-12
  EC50: 17 µM
Vero cells
  CC50: > 120 µM

## Cc1cc(O)c(=O)c(O)cc1C(=O)NCc1ccc(N2CCCC2)cc1 [Compound 1019]
RVFV MP-12
  EC50: 19 µM
Vero cells
  CC50: > 120 µM

## Cc1cc(O)c(=O)c(O)cc1C(=O)N1CCN(C(=O)C2COc3ccccc3O2)CC1 (centres unmarked) [Compound 876]
Vero cells
  CC50: > 120 µM

## Cc1cc(O)c(=O)c(O)cc1C(=O)Nc1cccc(Cc2ccccc2)c1 [Compound 799]
RVFV MP-12
  EC50: 17 µM
Vero cells
  CC50: 62 µM

## COc1ccc(/C=C/C(=O)c2ccccc(=O)c2O)cc1 [Compound 342]
HepDES19
  CC50: 30.4 µM
RVFV strain MP-12 [2]; read-out: EC50
  EC50: 55.5 µM
C. neoformans
  C. neoformans (MIC80, μM): 24 µM
Human RNase H1; [3]
  IC50: > 500 µM
RVFV MP-12
  EC50: 2 µM
Vero cells
  CC50: > 120 µM

## O=C(/C=C/c1cccc(Br)c1)c1ccccc(=O)c1O [Compound 341]
Staphylo-coccus spp.; read-out: Staphylo-coccus spp. (MIC80, μM)
  MIC80: 44 µM (≈ 14.6 µg/mL)
RVFV strain MP-12 [2]; [6]
  EC50: 25.2 µM
C. neoformans
  MIC80: 24 µM (≈ 7.95 µg/mL)
Human RNase H1
  IC50: > 500 µM
RVFV MP-12; Rift Valley fever virus, Vero
  EC50: 2 µM
In vitro; CC50
  CC50: > 120 µM

## Cc1cc(O)c(=O)c(O)cc1S(=O)(=O)c1ccccc1 [Compound 336]
RVFV strain MP-12 [2]; [6]
  EC50: 9 µM
C. neoformans
  MIC80: 50 µM (≈ 14.6 µg/mL)
Human RNase H1
  IC50: 85 µM
RVFV MP-12; Rift Valley fever virus, Vero
  EC50: 3 µM
Vero cells; African green monkey
  CC50: 65.8 µM
In vitro; CC50
  CC50: 70 µM

## COc1ccc(CON=C(C)c2c[nH]c(=O)[nH]c2=O)cc1 [Compound 522]
RVFV MP-12
  EC50: > 1 µM
Vero cells
  CC50: 1 µM

From paper PMC9481026 (PLoS ONE, 2022)
